This test concerns Dengue-2 (Strain New Guinea C). Description: Viral yield assay against Dengue-2 in Vero cells. Format: cell-based, Dengue virus. The method, boiled down:
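Vero cells were infected with dengue virus at an MOI of 0.1, treated with compound or DMSO vehicle, and kept at 37° C. Supernatant virus was harvested 48 hours post infection and titered on Vero cells, with EC50 derived from yield reduction.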

[1] abbreviates: Dengue virus, DENV2, viral yield assay, Vero cells, MOI 0.1, 48 hours post infection, read-out: Activity (EC50 in μM) DENV-2.
[2] abbreviates: Dengue virus, Vero cells, MOI 0.1, harvested 48 hours post infection, read-out: Activity (EC50 class) against Dengue-2 Virus in Vero cells.
Setting [3] is: Dengue virus, DENV2, Vero, 48 h, read-out: Activity (EC50 in μM) DENV-2.
[4] abbreviates: Dengue virus, Vero, 48 h, read-out: Activity (EC50 class) against Dengue-2 Virus in Vero cells.

Consider 34 compounds from US20170121344A1 (Siga Technologies, Inc., priority 2009, published 2017).

Read-outs that look alike come from different tables or passages of the source. Some results are limits rather than exact numbers.

On to `O=C(Nc1nccs1)c1sc2nc(N3CCOCC3)cc(-c3ccccc3)c2c1O` [Compound 384, 3-hydroxy-6-morpholino-4-phenyl-N-thiazol-2-yl-thieno[2,3-b]pyridine-2-carboxamide], for which, under setting [1], the EC50 lay within 5 to 25 µM. For `Nc1c(C(=O)Nc2ccc(Br)cc2)sc2nc(-c3ccncc3)ccc12` [Compound 416, 3-amino-N-(4-bromophenyl)-6-(4-pyridyl)thieno[2,3-b]pyridine-2-carboxamide], the EC50 under setting [1] is less than 5 µM. For `Nc1c(C(=O)Nc2ccc(S(N)(=O)=O)cc2)sc2nc3c(cc12)CCC3` [Compound 144, 3-Amino-6,7-dihydro-5H-cyclopenta[b]thieno[3,2-e]pyridine-2-carboxylic acid (4-sulfamoyl-phenyl)-amide], the EC50 under setting [2] is greater than 25 µM. `Nc1c(C(=O)Nc2ccc(Br)cc2)sc2nc(-c3ccc(Cl)cc3Cl)ccc12` [Compound 654, 3-amino-N-(4-bromophenyl)-6-(2,4-dichlorophenyl)thieno[2,3-b]pyridine-2-carboxamide]: under setting [1], the EC50 is less than 5 µM.

Turning to `Nc1c(C(=O)Nc2nc3ccccc3s2)sc2nc(-c3cccs3)ccc12` [Compound 436, 3-amino-N-(1,3-benzothiaozl-2-yl)-6-(2-thienyl)thieno[2,3-b]pyridine-2-carboxamide], the EC50 under setting [3] is less than 5 µM. For the compound `C=C(C)Cn1cnc2c(sc3nc4c(cc32)COC(C)(C)C4)c1=O` [Compound 203, 8,8-Dimethyl-2-(2-methyl-allyl)-8,9-dihydro-2H,6H-7-oxa-11-thia-2,4,10-triaza-benzo[b]fluoren-1-one], under setting [2], the EC50 is greater than 25 µM.

For the compound `Cc1cccc(C)c1NC(=O)c1sc2nc(N)c(C#N)cc2c1N` [Compound 127, 3,6-Diamino-5-cyano-thieno[2,3-b]pyridine-2-carboxylic acid (2,6-dimethyl-phenyl)-amide], the EC50 under setting [2] is greater than 25 µM. `Cc1cccc(NC(=O)c2sc3nc(-c4ccc(Cl)cc4)ccc3c2N)c1` [Compound 632, 3-amino-6-(4-chlorophenyl)-N-(m-tolyl)thieno[2,3-b]pyridine-2-carboxamide]: the EC50 under setting [1] was less than 5 µM. On to `Nc1c(C(=O)Nc2ccc3ccccc3c2)sc2nc3c(cc12)CCC3` [Compound 91, 3-Amino-6,7-dihydro-5H-cyclopenta[b]thieno[3,2-e]pyridine-2-carboxylic acid naphthalen-2-ylamide], for which, under setting [4], the EC50 lay in the range of 5 to 25 µM. As to `COCc1cc(C)nc2sc(C(=O)Nc3ccc4c(c3)OCO4)c(N)c12` [Compound 250, 3-Amino-4-methoxymethyl-6-methyl-thieno[2,3-b]pyridine-2-carboxylic acid benzo[1,3]dioxol-5-ylamide], under setting [2], the EC50 is greater than 25 µM. For `COc1ccc(CNC(=O)c2sc3nc4c(cc3c2N)CN(C)CC4)cc1OC` [Compound 279, 3-Amino-6-methyl-5,6,7,8-tetrahydro-thieno[2,3-b][1,6]naphthyridine-2-carboxylic acid 3,4-dimethoxy-benzylamide], the EC50 under setting [2] is greater than 25 µM. Consider `COc1ccc(-c2ccc3c(N)c(C(=O)Nc4ccc(Br)cc4C)sc3n2)cc1OC` [Compound 578, 3-amino-N-(4-bromo-2-methyl-phenyl)-6-(3,4-dimethoxyphenyl)thieno[2,3-b] pyridine-2-carboxamide], for which the EC50 under setting [1] is less than 5 µM. As for `Cc1nc2c(sc3nc4c(cc32)COC(C)(C)C4)c(=O)n1CC1CCCO1` (stereo not shown) [Compound 236, 3,8,8-Trimethyl-2-(tetrahydro-furan-2-ylmethyl)-8,9-dihydro-2H,6H-7-oxa-11-thia-2,4,10-triaza-benzo[b]fluoren-1-one], under setting [2], the EC50 is greater than 25 µM. Turning to `COc1cccc(-c2ccc3c(N)c(C(=O)Nc4ccc(OC)c(OC)c4)sc3n2)c1` [Compound 508, 3-amino-N-(3,4-dimethoxyphenyl)-6-(3-methoxyphenyl)thieno[2,3-b]pyridine-2-carboxamide], the EC50 under setting [3] is less than 5 µM.

For the compound `COCc1cc(C)nc2sc(C(=O)Nc3ccc(C(=O)OC)cc3)c(N)c12` [Compound 239, 4-[(3-Amino-4-methoxymethyl-6-methyl-thieno[2,3-b]pyridine-2-carbonyl)-amino]-benzoic acid methyl ester], the EC50 under setting [4] was greater than 25 µM. Turning to `COc1ccc(NC(=O)c2sc3nc4c(cc3c2N)CCC4)cc1` [Compound 184, 3-Amino-6,7-dihydro-5H-cyclopenta[b]thieno[3,2-e]pyridine-2-carboxylic acid (4-methoxy-phenyl)-amide], the EC50 under setting [4] was greater than 25 µM. As to `CCNC(=O)c1cccc(NC(=O)c2sc3nc(C)cc(C)c3c2C)c1` [Compound 402, N-[3-(ethylcarbamoyl)phenyl]-3,4,6-trimethyl-thieno[2,3-b]pyridine-2-carboxamide], the EC50 under setting [1] was greater than 25 µM. For `CC(=O)Nc1nc2sc(C(=O)Nc3ccc(Br)cc3)c(N)c2c(-c2ccco2)c1C#N` [Compound 324, 6-acetamido-3-amino-N-(4-bromophenyl)-5-cyano-4-(2-furyl)thieno[2,3-b]pyridine-2-carboxamide], the EC50 under setting [1] was less than 5 µM. Turning to `CCc1nnc(NC(=O)c2sc3nc(C)cc(C(F)(F)F)c3c2N)s1` [Compound 65, 3-Amino-6-methyl-4-trifluoromethyl-thieno[2,3-b]pyridine-2-carboxylic acid (5-ethyl-[1,3,4]thiadiazol-2-yl)-amide], the EC50 under setting [2] is 5 to 25 µM. In the case of `Nc1c(C(=O)Nc2cccc(C(F)(F)F)c2)sc2nc(C(F)(F)F)ccc12` [Compound 317, 3-amino-6-(trifluoromethyl)-N-[3-(trifluoromethyl)phenyl]thieno[2,3-b]pyridine-2-carboxamide], the EC50 under setting [1] is less than 5 µM. Regarding `CC(=O)N(CCN)c1c(C(=O)Nc2nnc(-c3ccccc3)s2)sc2nc3c(cc12)CCCCC3` [Compound 314, 3-(N-(2-amino-ethyl)acetamido)-N-(5-phenyl-1,3,4-thiadiazol-2-yl)-6,7,8,9-tetrahydro-5H-cylcohepta[b]thieno[3,2-e]pyridine-2-carboxamide], the EC50 (Vero cells, read-out: Activity (EC50 in μM) DENV-2) is less than 5 µM. Consider `COCc1cc(C)nc2sc(C(=O)NCc3ccco3)c(N)c12` [Compound 209, 3-Amino-4-methoxymethyl-6-methyl-thieno[2,3-b]pyridine-2-carboxylic acid (furan-2-ylmethyl)-amide], for which, under setting [2], the EC50 was greater than 25 µM. For the compound `CCOc1ccccc1NC(=O)c1sc2nc(-c3ccc(C)cc3)ccc2c1N` [Compound 647, 3-amino-N-(2-ethoxyphenyl)-6-(p-tolyl)thieno[2,3-b]pyridine-2-carboxamide], the EC50 under setting [1] was less than 5 µM.

For `Nc1c(C(=O)Nc2ccccc2C(F)(F)F)sc2nc3c(cc12)CCCCC3` [Compound 372, 3-amino-N-(2-(trifluoromethyl)phenyl)-6,7,8,9-tetrahydro-5H-cyclohepta[b]thieno [3,2-e]pyridine-2-carboxamide], the EC50 under setting [1] was less than 5 µM. Regarding `CCN(CC)C(=O)c1sc2nc3c(cc2c1N)CN(C(C)C)CC3` [Compound 271, 3-Amino-6-isopropyl-5,6,7,8-tetrahydro-thieno[2,3-b][1,6]naphthyridine-2-carboxylic acid diethylamide], under setting [4], the EC50 is greater than 25 µM. The same measure, in the same setting: then `COc1ccc(NC(=O)c2sc3nc(N4CCOCC4)c4c(c3c2N)CC(C)(C)OC4)cc1` [Compound 244, 1-Amino-8,8-dimethyl-5-morpholin-4-yl-8,9-dihydro-6H-7-oxa-3-thia-4-aza-cyclopenta[a]naphthalene-2-carboxylic acid (4-methoxy-phenyl)-amide], with greater than 25 µM. Turning to `CCc1nc2c(sc3nc4c(cc32)COC(C)(C)C4)c(=O)n1Cc1ccco1` [Compound 235, 3-Ethyl-2-furan-2-ylmethyl-8,8-dimethyl-8,9-dihydro-2H,6H-7-oxa-11-thia-2,4,10-triaza-benzo[b]fluoren-1-one], under setting [4], the EC50 was greater than 25 µM. Turning to “N-(1-adamantyl)-3-amino-6-(2-thienyl) thieno[2,3-b]pyridine-2-carboxamide [Compound 426]”, the EC50 (viral yield assay, Vero cells, MOI 0.1, 48 hours post infection, read-out: Activity (EC50 in μM) DENV-2) was less than 5 µM. Take `CC(C)NC(=O)c1sc2nc3c(c(-c4cccs4)c2c1N)CN(C)CC3` [Compound 273, 3-Amino-6-methyl-4-thiophen-2-yl-5,6,7,8-tetrahydro-thieno[2,3-b][1,6]naphthyridine-2-carboxylic acid isopropylamide]: the EC50 under setting [4] is greater than 25 µM. As to `CN1CCc2nc3sc(C(=O)Nc4ccc(Cl)cc4)c(N)c3c(-c3cccs3)c2C1` [Compound 36, 3-Amino-6-methyl-4-thiophen-2-yl-5,6,7,8-tetrahydro-thieno[2,3-b][1,6]naphthyridine-2-carboxylic acid (4-chloro-phenyl)-amide], the EC50 under setting [2] is less than 5 µM.

`Nc1c(C(=O)Nc2ccccc2)sc2nc(-c3ccccc3)cc(-c3ccccc3)c12` [Compound 66, 3-Amino-4,6-diphenyl-thieno[2,3-b]pyridine-2-carboxylic acid phenylamide]: under setting [2], the EC50 lay within 5 to 25 µM. As for `Cc1ccc(-c2c3c(nc4sc(C(N)=O)c(N)c24)CCCC3)cc1` [Compound 227, 3-Amino-4-p-tolyl-5,6,7,8-tetrahydro-thieno[2,3-b]quinoline-2-carboxylic acid amide], under setting [2], the concentration giving a half-maximal response (EC50) is greater than 25 µM. On the same count and under the same terms, next, `Cc1cc(C)c2c(N)c(C(=O)NCC(=O)O)sc2n1` [Compound 199, [(3-Amino-4,6-dimethyl-thieno[2,3-b]pyridine-2-carbonyl)-amino]-acetic acid]: greater than 25 µM. For the compound `CCc1nnc(NC(=O)c2sc3nc4c(cc3c2N)CN(C)CC4)s1` [Compound 268, 3-Amino-6-methyl-5,6,7,8-tetrahydro-thieno[2,3-b][1,6]naphthyridine-2-carboxylic acid (5-ethyl-[1,3,4]thiadiazol-2-yl)-amide], the EC50 under setting [2] was greater than 25 µM.

One may read the EC50 as the concentration needed to bring the measured effect to its halfway point.
